In patent US20070218105A1, “Topical Treatment with NGF and DHA in Damaged Corneas” (priority 2004, published 2007):
Values joined by “and” are separate entries in the source; they are usually repeats but may differ in a detail not shown here. Equal values may be shown once.

Tests used:
Type in all cases: in vivo, New Zealand albino rabbits
Rabbit Corneas [1] = assay: Rose bengal staining after PRK; conditions: first postoperative month (30 days after PRK)
Procedure: Twenty-one New Zealand albino rabbits weighing 1.5 to 2.0 kg were obtained from a commercial supplier and were treated in accordance with the guidelines of the Association for Research in Vision and Ophthalmology. Each rabbit received intramuscular xylazine (10 mg/kg) and ketamine hydrochloride (50 mg/kg) anesthesia. Tetracaine eye drops were used as topical anesthesia. Tear secretion tests (e.g., tear break-up time, Schirmer's test, and rose bengal staining) were performed preoperatively under general anesthesia. Each rabbit received a unilateral PRK laser treatment. The corneal epithelium was removed with an epithelial scrubber (Katena Inc, Denville, N.J.). An excimer laser ablation to correct −5 diopters of myopia using a 6.5 mm optical zone (Lasersight Technologies, Inc., Winter Park, Fla.) was performed. […]
(§1) Statistical analyses were performed using the Statistical Analysis System (SAS) software version 9.0 (SAS Institute, Cary, N.C.). The tear secretion tests (Schirmer, tear break-up time and rose bengal staining) and density of nerve areas were analyzed using a repeated measures design in the analysis of variance (ANOVA). The differences in the tear secretion tests between the four treatment groups were analyzed at each time point. The effect of the various treatments on tubulin III-, CGRP- and SP-positive epithelial and sub-basal nerve areas was evaluated with a multivariate test. […]

[2] = test system: sub-basal and epithelial nerve bundles; assay: Class III β-tubulin staining of sub-basal and epithelial nerve bundle area after PRK; conditions: 8 weeks after PRK
Procedure: (§2) Twenty-one New Zealand albino rabbits were divided in 4 groups. The three experimental groups consisted of 6 rabbits each. The control group had only 3 rabbits. The rabbits within each of the four groups were randomized to receive twice-weekly topical treatments through 72-hour collagen shields (Oasis Medical Inc.; Glendora, Calif.) for a total of eight weeks. The four treatments were as follows: (1) 0.1 μg NGF (25 μl) plus 100 μl phosphate buffered saline (PBS); (2) 100 μg DHA (100 μl) plus 25 μl of PBS; (3) 0.1 μg NGF (25 μl) plus 100 μg DHA (100 μl); and (4) 125 μl of PBS with albumin (control). […]
as §1
(§3) Rabbits were humanely euthanized at 8 weeks post-PRK surgery using an intravenous overdose of pentobarbital. […] Each section was evaluated with hematoxylin and eosin (H&E) stain and by immuno-histochemical analysis. […]

Rabbit Corneas [3] = assay: Schirmer's test (tear secretion) after PRK; conditions: mean ± Standard Error
Procedure: (§4) Twenty-one New Zealand albino rabbits weighing 1.5 to 2.0 kg were obtained from a commercial supplier and were treated in accordance with the guidelines of the Association for Research in Vision and Ophthalmology. Each rabbit received intramuscular xylazine (10 mg/kg) and ketamine hydrochloride (50 mg/kg) anesthesia. Tetracaine eye drops were used as topical anesthesia. Tear secretion tests (e.g., tear break-up time, Schirmer's test, and rose bengal staining) were performed preoperatively under general anesthesia. Each rabbit received a unilateral PRK laser treatment. The corneal epithelium was removed with an epithelial scrubber (Katena Inc, Denville, N.J.). An excimer laser ablation to correct −5 diopters of myopia using a 6.5 mm optical zone (Lasersight Technologies, Inc., Winter Park, Fla.) was performed. The eye was washed with balanced salt solution. Lubricating eye drops and an ophthalmic solution of 0.3% ofloxacin eye drops (Allergan Inc, Irvine, Calif.) were used postoperatively. Unless otherwise indicated, all chemicals were purchased from Sigmna Chemical Co. (St. Louis, Mo.).
Twenty-one New Zealand albino rabbits were divided in 4 groups. The three experimental groups consisted of 6 rabbits each. The control group had only 3 rabbits. The rabbits within each of the four groups were randomized to receive twice-weekly topical treatments through 72-hour collagen shields (Oasis Medical Inc.; Glendora, Calif.) for a total of eight weeks. […]
as §1

corneal epithelium = assay: Ki-67 immunostaining of proliferating cells in corneal epithelium after PRK; conditions: 8 weeks after PRK
Procedure: as §2, §3
Photographs of the tissue sections were acquired using MetaVue version 5.0r3 (Universal Imaging Corp.; Downingtown, Pa.) and saved as a TIFF file. (Data not shown) The tubulin III-, CGRP- and SP-positive tissue nerve areas and the percentage of Ki-67 cells were calculated with respect to the total area using the image analysis program Image Pro Plus 4.5 (Media Cybernetics Inc., Silver Spring, Md.). Sub-basal and epithelial nerve areas were measured in all groups eight weeks after PRK using anti-class III β tubulin, CGRP and SP monoclonal antibodies. […]

Rabbit Corneas [4] = assay: Tear break-up time after PRK; conditions: for Tear Break-Up Time: mean ± Standard Error
Procedure: as §4
Twenty-one New Zealand albino rabbits were divided in 4 groups. The three experimental groups consisted of 6 rabbits each. The control group had only 3 rabbits. The rabbits within each of the four groups were randomized to receive twice-weekly topical treatments through 72-hour collagen shields (Oasis Medical Inc.; Glendora, Calif.) for a total of eight weeks. The four treatments were as follows: (1) 0.1 μg NGF (25 μl) plus 100 μl phosphate buffered saline (PBS); (2) 100 μg DHA (100 μl) plus 25 μl of PBS; (3) 0.1 μg NGF (25 μl) plus 100 μg DHA (100 μl); and (4) 125 μl of PBS with albumin (control). In all animals, a tarsorrhaphy was performed on the treated eyes, and the eyes were opened only twice a week to introduce a new collagen shield.
Statistical analyses were performed using the Statistical Analysis System (SAS) software version 9.0 (SAS Institute, Cary, N.C.). The tear secretion tests (Schirmer, tear break-up time and rose bengal staining) and density of nerve areas were analyzed using a repeated measures design in the analysis of variance (ANOVA). The differences in the tear secretion tests between the four treatment groups were analyzed at each time point. The effect of the various treatments on tubulin III-, CGRP- and SP-positive epithelial and sub-basal nerve areas was evaluated with a multivariate test. Comparisons among the four treatments groups were made using adjusted least square means with alpha levels corrected by a simulation method.
Tear secretion tests (tear break-up time, Schirmer's test and rose bengal staining) were performed every 15 days over the 8-week period following PRK. All the tests were performed with general anesthesia. […]

CC/C=C\C/C=C\C/C=C\C/C=C\C/C=C\C/C=C\CCC(=O)O [DHA, docosahexaenoic acid]
eyes with positive rose bengal staining (Rabbit Corneas [1]): 33% | average ratio of sub-basal tubulin-positive nerve bundle area to total area ([2]; FIG. 2A): ~1.2 | ratio of the tubulin positive nerve bundle area to the total epithelial area ([2]; epithelial layer, FIG. 2B): no significant effect | Schirmer's Test (Rabbit Corneas [3]; 15 Days after PRK): 10 mm and 10.0 ± 3.7 mm | Schirmer's Test (Rabbit Corneas [3]; 30 Days (1 month) after PRK): 11.5 mm and 11.5 ± 3.4 mm | Schirmer's Test (Rabbit Corneas [3]; 45 Days after PRK): 12.5 ± 2.3 mm | percentage of Ki-67 positive epithelial cells (corneal epithelium): 6% | tear break-up time measurement (Rabbit Corneas [4]; 1 week postoperative): 14.5 s | Tear Break-Up Time (Rabbit Corneas [4]; 15 Days after PRK): 14.5 ± 6.2 s | Tear Break-Up Time (Rabbit Corneas [4]; 30 Days (1 month) after PRK): 14.0 s and 14.0 ± 4.8 s | Tear Break-Up Time (Rabbit Corneas [4]; 45 Days after PRK): 14.0 ± 4.0 s
